# Test results: patent US8222416B2, “Azaindole glucokinase activators” (Hoffmann-La Roche Inc., priority 2009, dated 2012)
# What was measured:
# [1] = biological target: T1, Recombinant human liver GK1 (GST-GK) (Homo sapiens, UniProt P35557); test: In vitro glucokinase activity assay (G6PDH-coupled, NADH, OD340); assay type: biochemical; conditions: concentration of activator that produced a 50% increase in the activity of GK; 5 mM D-glucose, 30° C.
# T1 construct: made in house; host or cells: E. coli
# T1 sequence (P35557 1-466 isoform P35557-2): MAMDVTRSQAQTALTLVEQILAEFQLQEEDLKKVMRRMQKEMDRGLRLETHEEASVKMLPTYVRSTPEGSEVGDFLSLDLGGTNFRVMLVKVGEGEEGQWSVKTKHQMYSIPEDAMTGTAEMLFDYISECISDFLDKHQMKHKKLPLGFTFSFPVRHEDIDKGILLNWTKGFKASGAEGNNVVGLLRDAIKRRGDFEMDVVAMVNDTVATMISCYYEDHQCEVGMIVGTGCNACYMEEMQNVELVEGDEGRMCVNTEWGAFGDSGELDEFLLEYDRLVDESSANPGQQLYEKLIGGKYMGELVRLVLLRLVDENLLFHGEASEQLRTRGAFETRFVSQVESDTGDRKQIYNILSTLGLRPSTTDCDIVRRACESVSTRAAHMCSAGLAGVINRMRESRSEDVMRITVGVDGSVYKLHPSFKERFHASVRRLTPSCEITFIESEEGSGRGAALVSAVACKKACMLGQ
# Summary of the method: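 GST-fused human liver GK1 from E. coli, run at 30° C. in pH 7.1 HEPES with 5 mM glucose, 1 mM ATP and 10% DMSO, coupled via G6PDH to NADH. OD340 rate measured after enzyme start; SC1.5 is the activator concentration raising activity 50% over DMSO control.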
# [2] = tested on: C57BL/6J mice; test: Glucokinase activator in vivo screen, blood glucose after oral gavage in lean and diet induced obese mice; conditions: Mus musculus, C57B6 mice, read-out: % gluc lowering @ 2 H; for change in vivo at 25 mg/kg: vs control at 2 hours post 25 mg/kg oral dose; for change in vivo at 50 mg/kg: vs control at 2 hours post 50 mg/kg oral dose
# Protocol: Glucokinase Activator in vivo Screen Protocol in Lean and Diet Induced Obese Mice: Lean or Diet-Induced Obese (DIO) C57BL/6J mice were orally dosed via gavage with Glucokinase (GK) activator following a two hour fasting period. Blood glucose determinations were made at various (e.g. 0, 1, 2, 4 and 8 hours post-oral gavage) times during the study.
# C57Bl/6J mice were obtained from Jackson Laboratory (Bar Harbor, Me.) and were maintained in a light-dark cycle with lights on from 0600-1800 hr. For studies in lean mice, the mice were received at age ten weeks and given ad libitum access to control diet (LabDiet 5001 chow, PMI Nutrition, Brentwood, Mo.), and were at least age 11 weeks at the time of study. For studies in the DIO model, the mice were received at age five weeks and given ad libitum access to Bio-Sery F3282 High Fat Diet (Frenchtown, N.J.), and were at least age 16 weeks at the time of study. The experiments were conducted during the light phase of the light-dark cycle. Mice (n=6) are weighed and fasted for a two hour period prior to oral treatment. GK activators are formulated in Gelucire vehicle (Ethanol:Gelucire44/14:PEG400q.s. 4:66:30 v/w/v. For studies in lean mice, the mice were dosed orally with 5.04 per gram of body weight (i.e. 5 ml/kg×10.0 mg/ml formulation to equal a 50 mg/kg dose). For studies in DIO mice, the mice were dosed orally with 5.04 per gram of body weight (i.e. 5.0 ml/kg×5 mg/ml formulation to equal a 25 mg/kg dose). Immediately prior to dosing, a pre-dose (time zero) blood glucose reading was acquired by snipping off a small portion of the animal's tail and collecting […] blood into a heparinized capillary tube for analysis. Following GK activator administration, additional blood glucose readings were taken at various time points post dose from the same tail wound. Results were interpreted by comparing the mean blood glucose values of vehicle treated mice with GK activator treated mice over the study period.
# The Table below provides data for % glucose lowering of a representative number of compounds of the present invention vs control at 2 hours post 25 or 50 mg/kg dose in C57B6 mice: […]
SC1.5 [1] [µM],SMILES,change in vivo at 25 mg/kg [2] [%],change in vivo at 50 mg/kg [2] [%]
0.05,"CS(=O)(=O)c1ccc([C@@H](CC2CCCC2)c2cc3cc(F)cnc3[nH]2)cc1 (single isomer, unassigned) [Example 118]",-48.4,–
0.21,"CS(=O)(=O)c1ccc([C@@H](CC2CCOCC2)c2cc3cc(F)cnc3[nH]2)cc1 (single isomer, unassigned) [Example 124]",-35,–
0.241,"CC(C)(O)c1ccc([C@@H](CC2CCCC2)c2cc3cc(F)cnc3[nH]2)cc1 (single isomer, unassigned) [Example 120]",-52,–
0.236,"CS(=O)(=O)c1ccc(C(CC2CCCC2)c2cc3cccnc3[nH]2)cc1 (stereo not shown) [Example 138, 2-[2-Cyclopentyl-1-(4-methanesulfonyl-phenyl)-ethyl]-1H-pyrrolo[2,3-b]pyridine]",–,-50.4

# Continued, compound first:
SMILES,SC1.5 [1] [µM],change in vivo at 25 mg/kg [2] [%],change in vivo at 50 mg/kg [2] [%]
"CS(=O)(=O)c1ccc(C(CC2CCCCO2)c2cc3cccnc3[nH]2)cc1 (single isomer, unassigned) [Example 60, 2-[1-(4-Methanesulfonyl-phenyl)-2-(tetrahydro-pyran-2-yl)-ethyl-]-1H-pyrrolo[2,3-b]pyridine]",0.451,-29.9,–
"CC(C)NC(=O)c1cnc2[nH]c(C(CC3CCCC3)c3ccc(S(C)(=O)=O)cc3)cc2c1 (stereo not shown) [Example 3, 2-[2-Cyclopentyl-1-(4-methanesulfonyl-phenyl)-ethyl]-1H-pyrrolo[2,3-b]pyridin-5-carboxylic acid isopropylamide]",1.9,–,-5.6
"CC(C)Oc1cnc2[nH]c([C@H](CC3CCCC3)c3ccc(S(C)(=O)=O)cc3)cc2c1 (single isomer, unassigned) [Example 19]",0.414,-14.8,–
"COCc1cnc2[nH]c([C@H](CC3CCCC3)c3ccc(S(C)(=O)=O)cc3)cc2c1 (single isomer, unassigned) [Example 42]",0.903,-10.3,–
"CS(=O)(=O)c1ccc(C(CC2CCCC2)c2cc3cccnc3[nH]2)cn1 (stereo not shown) [Example 109, 2-[2-Cyclopentyl-1-(6-methanesulfonyl-pyridin-3-yl)-ethyl]-1H-pyrrolo[2,3-b]pyridine]",2.1,–,-31.6
"CS(=O)(=O)c1ccc([C@@H](CC2CCOCC2)c2cc3cccnc3[nH]2)cc1 (single isomer, unassigned) [Example 67]",0.505,-43.6,–
CC(C)S(=O)(=O)c1ccc(C(CC2CCCC2)c2cc3cccnc3[nH]2)cc1 (stereo not shown) [Example 69],0.387,–,-40.3
"COc1cnc2[nH]c([C@H](CC3CCOCC3)c3ccc(C(F)(F)F)cc3)cc2c1 (single isomer, unassigned) [Example 34]",0.958,-10.7,–
"CC(C)(O)c1ccc([C@@H](CC2CCCC2)c2cc3cccnc3[nH]2)cc1 (single isomer, unassigned) [Example 82]",0.647,-42.7,–
"COCCOc1cnc2[nH]c([C@H](CC3CCCC3)c3ccc(S(C)(=O)=O)cc3)cc2c1 (single isomer, unassigned) [Example 16]",0.21,-31.3,–
